Measurements reported in ChEMBL document CHEMBL1131861, “Antitumor agents 200. Cytotoxicity of naturally occurring resveratrol oligomers and their acetate derivatives” (1999).
≈ marks a conversion by molar mass, not a printed value. Calls of active or inactive are those of the source. The rule behind the calls is not given here.

Key:
1A9 [1] = test: Cytotoxicity against human ovarian cancer (1A9) cell lines.; type: functional; conditions: read-out: ED50 (the source's name)
MCF7 [2] = test: Cytotoxicity against human breast cancer(MCF-7) cell lines.; type: functional; conditions: read-out: ED50 (the source's name)
HCT-8 [3] = test: Cytotoxicity against human ileocecal carcinoma (HCT-8) cell lines.; type: functional; conditions: read-out: ED50 (the source's name)
A549 [4] = test: Cytotoxicity against human lung carcinoma (A549) cell lines; Not active; type: functional, cell-based
KB [5] = test: Cytotoxicity against human epidermoid carcinoma of the nasopharynx(KB) cell lines.; type: functional; conditions: read-out: ED50 (the source's name)
CAKI-1 [6] = test: Cytotoxicity against human renal cancer(CAKI-1) cell lines; type: functional; conditions: read-out: ED50 (the source's name)
HCT-8 [7] = test: Percentage inhibition human ileocecal carcinoma (HCT-8) cell lines.; type: functional
CAKI-1 [8] = test: Percentage inhibition of human renal cancer(CAKI-1) cell lines; type: functional
MCF7 [9] = test: Percentage inhibition of human breast cancer(MCF-7) cell lines.; type: functional
SAOS-2 [10] = test: Percentage inhibition of human osteosarcoma (SaOS-2) cell lines.; type: functional
SAOS-2 [11] = test: Cytotoxicity against human osteosarcoma (SaOS-2) cell lines.; type: functional; conditions: read-out: ED50 (the source's name)
KB [12] = test: Percentage inhibition of human epidermoid carcinoma of the nasopharynx(KB) cell lines.; type: functional
A549 [13] = test: Cytotoxicity against human lung carcinoma (A549) cell lines; type: functional; conditions: read-out: ED50 (the source's name)
A549 [14] = test: Percentage inhibition of human lung carcinoma (A549) cell lines; type: functional
1A9 [15] = test: Percentage inhibition of human ovarian cancer (1A9) cell lines.; type: functional
CAKI-1 [16] = test: Cytotoxicity against human renal cancer(CAKI-1) cell lines; […]; type: functional, cell-based

| SMILES | EC50 (1A9 [1]) [µg/mL] | EC50 (MCF7 [2]) [µg/mL] | EC50 (HCT-8 [3]) [µg/mL] | ED50 (A549 [4]) | EC50 (KB [5]) [µg/mL] | EC50 (CAKI-1 [6]) [µg/mL] | Inhibition (HCT-8 [7]) [%] | Inhibition (CAKI-1 [8]) [%] | Inhibition (MCF7 [9]) [%] | Inhibition (SAOS-2 [10]) [%] | EC50 (SAOS-2 [11]) [µg/mL] | Inhibition (KB [12]) [%] | EC50 (A549 [13]) [µg/mL] | Inhibition (A549 [14]) [%] | Inhibition (1A9 [15]) [%] | ED50 (CAKI-1 [16]) |
| --- | --- | --- | --- | --- | --- | --- | --- | --- | --- | --- | --- | --- | --- | --- | --- | --- |
| CC(=O)Oc1ccc([C@@H]2c3c(OC(C)=O)cc(OC(C)=O)cc3[C@H]3[C@H](c4ccc(OC(C)=O)cc4)c4c(OC(C)=O)cc(OC(C)=O)cc4[C@@H]23)cc1 | 3.2 (≈ 4.53 µM) | 7.4 (≈ 10.5 µM) | 8 (≈ 11.3 µM) | inactive | 1.6 (≈ 2.26 µM) | 8 (≈ 11.3 µM) |  |  |  |  |  |  |  |  |  |  |
| CC(=O)Oc1ccc([C@@H]2c3c(OC(C)=O)cc(OC(C)=O)cc3[C@@H]3c4c(OC(C)=O)cc(OC(C)=O)cc4C2[C@H]3c2ccc(OC(C)=O)cc2)cc1 | 6 (≈ 8.49 µM) | > 10 | > 10 | inactive | 3 (≈ 4.25 µM) | > 10 | 36 | 21 | 43 |  |  |  |  |  |  |  |
| Oc1ccc([C@H]2c3c(O)cc(O)cc3[C@H]3c4c(cc(O)cc4[C@@H]2O)O[C@@H]3c2ccc(O)cc2)cc1 [AMPELOPSIN A] | > 20 | > 20 |  |  | > 20 | > 20 |  | 38 | 10 | 8 | > 20 | 38 | > 20 | 7 | 32 |  |
| CC(=O)Oc1ccc(/C=C/c2cc(OC(C)=O)cc3c2[C@H](c2cc(OC(C)=O)cc(OC(C)=O)c2)[C@@H](c2ccc(OC(C)=O)cc2)O3)cc1 | 5.8 (≈ 8.73 µM) | 4 (≈ 6.02 µM) |  |  | 7.5 (≈ 11.3 µM) |  |  |  |  |  | 7.5 (≈ 11.3 µM) |  | 20 (≈ 30.1 µM) |  |  | inactive |
| CC(=O)Oc1ccc([C@H]2c3c(OC(C)=O)cc(OC(C)=O)cc3[C@H]3c4c(cc(OC(C)=O)cc4[C@@H]2OC(C)=O)O[C@@H]3c2ccc(OC(C)=O)cc2)cc1 | 0.7 (≈ 0.969 µM) | 2 (≈ 2.77 µM) | 4.1 (≈ 5.67 µM) | inactive | 0.6 (≈ 0.83 µM) | 4 (≈ 5.53 µM) |  |  |  |  |  |  |  |  |  |  |
| Oc1ccc([C@@H]2c3c(O)cc(O)cc3[C@@H]3c4c(cc(O)cc4[C@H]2[C@@H]2c4cc(O)cc5c4[C@@H](c4cc(O)cc(O)c4[C@H]2c2ccc(O)cc2)[C@H](c2ccc(O)cc2)O5)O[C@H]3c2ccc(O)cc2)cc1 | 7.8 (≈ 8.6 µM) | 4.2 (≈ 4.63 µM) |  |  | 1.2 (≈ 1.32 µM) |  |  |  |  | 41 | > 20 |  | 4.8 (≈ 5.29 µM) |  |  | inactive |
